According to US9032821B2, “Articles for screening insect pest-repellents and uses thereof” (National Taiwan University, priority 2012, dated 2015):
“And” between values parts separate entries of the source, which are not always exact repeats. Identical values can stand only once.

Assays:
Assay type in all cases: in vivo
fleas [1] = experiment: Flea repellent test, tapered-end filter paper article in concave surface (round-ended glass) tube
From the text: (§1) Two types of filter paper articles were constructed. Specifically, article with two blunt ends (herein after “blunt-end article”) and article with one tapered end and one blunt end (herein after “tapered-end article”), were constructed in accordance with the procedures depicted in FIG. 2, except minor modifications for the blunt-end article, in which each of the two filter paper stripes were not cut diagonally from one end, and therefore both ends remained blunt after the two filter paper stripes were adhered. Repellents test were then conducted using the respective articles so as to develop an improved system and/or method for screening a candidate insect pest-repellent.

fleas [2] = experiment: Flea repellent test, blunt-end filter paper article in flat surface tube (inverted centrifuge tube); details: 20 fleas, counted after 30 min, tests #1-3
From the text: as §1

fleas [3] = experiment: Screening of essential oils as flea-repellents, tapered-end article in round-ended tube, repellency (PR %); details: concentration of about 1% (wt %)
From the text: In another aspect, a method of screening a candidate insect pest-repellant using the article 100 of FIG. 1 is provided. Referring again to FIG. 2, during the operation of screening an effective insect pest-repellent, a few drops of a candidate insect pest-repellent solution and a control solution (e.g., a buffer or water) are respectively applied onto the two paper strips (i.e., the first and second paper strips (110, 120) respectively having the first and second tapered ends (111, 121)), and allowed them to spread evenly throughout the respective papers. The two paper strips (110, 120) are then let standing for a few minutes to dry. […] In one example, the entire set up (i.e., including the article 100, the tube 140 and the fleas) is let stand for at least 30 min, before the number of insect pests on respective paper strips (110, 120) are counted. Repellency (PR %) of the candidate insect pest-repellent is determined by the following equation, […]
The article was let stand for about 30 min until it was dried. […] After 30 min, the numbers of fleas on respective sides of the filtered paper article was then counted. Repellency (PR %) of each candidate essential oils was calculated in accordance with the following equation, […]

[4] = tapered end article + concave surface tube, 20 fleas, counted after 30 min, tests #1-3

| Structure (SMILES) | repellent activity towards fleas (fleas [1]; in words, from Table 1, compared with the two commercial flea repellents) | number of fleas on Control (untreated) side of the article (fleas [1]; [4]) | number of fleas on Treated side of the article (fleas [1]; [4]) | number of fleas in the Bottom of the tube (fleas [2]) | number of fleas on Control (untreated) side of the article (fleas [2]) | number of fleas on Treated side of the article (fleas [2]) | repellency (fleas [3]) |
| --- | --- | --- | --- | --- | --- | --- | --- |
| CCO [75% Ethanol, ethanol] | no repellent activity | 9 and 11 | 9 and 11 and 8 | 4 and 2 and 3 | 10 and 8 and 6 | 6 and 10 and 11 | – |
| O=CC=Cc1ccccc1 [cinnamaldehyde] | – | – | – | – | – | – | at least 97% |
